Laboratory results reported in patent publication US5591431A, “Enhancement of clot lysis” (G.D. Searle & Co., priority 1990, dated 1997).
“And” between values parts separate entries of the source, which are not always exact repeats. Equal values may be shown once. Read-outs that look alike come from different tables or passages of the source. Peptide text beside a SMILES is read from it.

Columns and labels:
tPA antigen = tPA antigen ELISA in rabbit plasma during clot lysis experiments; format: in vivo; conditions: with tPA
Method: Samples of rabbit plasma were assayed by a commercial ELISA assay from American Diagnostic Inc. (ADI), New York, N.Y. Several modifications are made to the ADI protocol, which include using 10 μL of untreated plasma sample to minimize background and spiking the standard curve with 10 μL rabbit plasma to equalize any salt effect that might result. The assay was standardized with mouse C127 cell tPA (Invitron, St. Louis, Mo.).
The tPA antigen levels were monitored hourly to determine if the increase in clot lysis is due to an extended tPA half-life. […] Antigen levels of tPA decreased after infusion is stopped, indicating normal clearance of the exogenous tPA.

α-2 antiplasmin = experiment: Antiplasmin assay (plasmin cleavage of S2251) in rabbit plasma during clot lysis experiments; format: in vivo
Method: Antiplasmin levels were monitored by the antiplasmin assay (Helena Labs, Beaumont, Tex.). This assay measures inhibition of plasmin cleavage of a chromogenic substrate S2251 (H-D Valyl-Leucyl-L-Lysine-p-nitroanilide dihydrochloride) obtained from Helena Labs. A typical reaction mixture contains 215 μL of 50 mM Tris buffer pH 7.4, 110 mM NaCl, 5 μL rabbit plasma, 15 μL plasmin (1 unit), and 15 μL of substrate S2251 (3.5 mM stock) in a total reaction volume of 250 μL. The generation of p-nitroaniline product is monitored at […].

fibrinogen [1] = conditions: rabbit, in vivo
Method: (§1) Fibrinogen concentration in dilute plasma is inversely proportional to the thrombin clotting of the plasma (S. Borgstrom, Acta Chir. Scand. 90:419 (1945); A. Clauss, Acta Haemat, 17:273 (1957); K. Jacobson, Scand. J. Clin. Lab. Med. 7:7 (1955). Plasma was diluted 1:10 and 200 μL of this solution added to 100 μL (10 units) of bovine thrombin. Clotting time was measured on a clinical fibrometer, and fibrinogen levels determined as mg/dL plasma.

[2] = system: isolated clot in the rabbit jugular vein (tPA mediated clot lysis); experiment: Rabbit jugular vein thrombolysis model I: peptide added during clot formation, then tPA infusion; format: in vivo, rabbit (New Zealand White); conditions: tPA alone 0.125 mg/kg infused over 4 h; standard curve 1 conditions
Method: Two independent studies were performed using the rabbit jugular vein thrombolysis model described in D. Collen et al., J. Clin. Invest. 71:368 (1983), with minor modifications. The enhancer peptide was administered during clot formation prior to tPA administration in one set of experiments with the rabbit jugular vein thrombolysis model. The enhancer peptide produced a five-fold increase in the clot lysis obtained from infusion of 0.125 mg tPA/kg, which corresponds to the lysis observed by a six-fold increase in tPA dose.
Clot lysis standard curves were performed for varying doses of tPA from C127 mouse cells (Invitron). […] To compare the data, standard curves were established for each procedure. A linear dose dependency is observed with both sets of data. […] Increases in clot lysis were evaluated by two methods. In the first method, fold increases in % clot lysis were calculated as follows: [formula] […] Fold increase in tPA dose was determined as follows: [formula] […]
An isolated clot was formed in the rabbit jugular vein using bovine thrombin (Calbiochem, San Diego, Calif.) and ^125 I fibrinogen (Amersham, Arlington Heights, Ill.). […] Blood samples were taken every hour from the femoral vein, and clot lysis was measured by comparison of residual radioactivity in the clot at the end of 4 1/2 hours. […]

[3] = system: jugular vein clot (tPA mediated clot lysis); experiment: Rabbit jugular vein thrombolysis model II: peptide coinfused with tPA; format: in vivo, rabbit (New Zealand White); conditions: tPA alone 0.125 mg/kg; standard curve 2 conditions (17% background lysis)
Method: In a second experiment the enhancer peptide was administered with tPA. […] Clot lysis standard curves were performed for varying doses of tPA from […] mouse cells (Invitron). […] To compare the data, standard curves were established for each procedure. A linear dose dependency is observed with both sets of data. […] The chosen dose of tPA (0.125 mg/kg) for the peptide experiments gave 17% and 27% lysis, respectively, for the two sets of experiments. This dose was chosen as the baseline for the peptide study so that an increase in clot lysis would be observable. Increases in clot lysis were evaluated by two methods. In the first method, fold increases in % clot lysis were calculated as follows: [formula] In the second method, the equivalent dose of tPA necessary to obtain the clot lysis observed with tPA and peptide was extrapolated from the appropriate standard curve. Fold increase in tPA dose was determined as follows: [formula] A dose response study was performed with the peptides using a constant tPA dose (FIG. 5). Three doses are tested: 1.85 mg/kg, 0.185 mg/kg and 0.0185 mg/kg, which correspond to molar ratios of peptide to tPA of 385, 38.5, and 3.85, respectively with weight ratios of enhancer peptide to tPA of 15:1, 1.5:1, and 0.15:1 respectively. […]

fibrinogen [4] = experiment: Fibrinogen level in rabbit plasma by thrombin clotting time during clot lysis experiments; conditions: enhancer peptide dose 0 mg/kg (tPA only)
Method: as §1

Compound | tPA Antigen 30 min. after Infusion (tPA antigen; enhancer peptide dose 0.0185 mg/kg) [mg/mL] | tPA Antigen 30 min. after Infusion (tPA antigen; enhancer peptide dose 0.185 mg/kg) [mg/mL] | α-2 antiplasmin levels (α-2 antiplasmin; all rabbit experiments, including those with increased clot lysis from enhancer peptide) | α-2 Antiplasmin (% of baseline) (α-2 antiplasmin; enhancer peptide dose 0.0185 mg/kg, with tPA) | α-2 Antiplasmin (% of baseline) (α-2 antiplasmin; enhancer peptide dose 0.185 mg/kg, with tPA) | α-2 Antiplasmin (% of baseline) (α-2 antiplasmin; enhancer peptide dose 1.85 mg/kg, with tPA) | α-2 Antiplasmin (% of baseline) (α-2 antiplasmin; enhancer peptide dose 9.25 mg/kg, with tPA) | Fibrinogen levels (fibrinogen [1]) | Fibrinogen (% of baseline) (fibrinogen [1]; 0.0185 mg/kg) | Fibrinogen (% of baseline) (fibrinogen [1]; 0.185 mg/kg) | Fibrinogen (% of baseline) (fibrinogen [1]; 1.85 mg/kg) | Fibrinogen (% of baseline) (fibrinogen [1]; 9.25 mg/kg) | Fibrinogen (% of baseline) (fibrinogen [1]; 18.5 mg/kg) | clot lysis [2] | clot lysis [3] [%] | α-2 Antiplasmin (% of baseline) (α-2 antiplasmin; enhancer peptide dose 0 mg/kg (tPA only)) | Fibrinogen (% of baseline) (fibrinogen [4])
CC[C@H](C)[C@H](NC(=O)[C@H](Cc1ccccc1)NC(=O)[C@@H](NC(=O)[C@H](CC(C)C)NC(=O)[C@H](Cc1ccccc1)NC(=O)[C@@H]1CCCN1C(=O)[C@H](CCCNC(=N)N)NC(=O)[C@H](CC(N)=O)NC(=O)[C@H](C)NC(=O)[C@H](CCCCN)NC(=O)[C@H](Cc1ccccc1)NC(=O)[C@@H](NC(=O)[C@@H](NC(=O)[C@H](CCCNC(=N)N)NC(=O)[C@H](CC(N)=O)NC(=O)[C@@H]1CCCN1C(=O)[C@H](CC(N)=O)NC(=O)[C@H](CC(C)C)NC(=O)[C@H](CO)NC(=O)[C@H](CCCNC(=N)N)NC(=O)CNC(=O)[C@H](C)N)C(C)C)[C@@H](C)O)C(C)C)C(=O)O [enhancer peptide] (H-AGRSLNPNRVTFKANRPFLVFI-OH) | 0 | 0 | did not change | 87 +/- 7 % of baseline | 96 +/- 1 % of baseline | 86 +/- 8 % of baseline | 92 +/- 2 % of baseline | did not change | 100 % of baseline | 100 +/- 1 % of baseline | 100 +/- 1 % of baseline | 91 % of baseline | 91 +/- 13 % of baseline |  |  |  | 
tPA: tissue plasminogen activator from C127 mouse cells (Invitron Lot #76-001-31395), control tPA for this study |  |  |  |  |  |  |  |  |  |  |  |  |  | 17% and 16 +/- 1% | 27 | 94 +/- 2 % of baseline | 100 % of baseline
